A short description of this data set: Human HepG2 cell viability assay in 384 well format. It is filed as toxicity, cell-based. On the set-up: dose 125 nL, time 70.5 hour; cytotoxicity at 70.5 h: concentration not given beside the values. Particulars: HepG2 cells, read-out: Inhibition.

Molecules are shown by their SMILES.

Consider `C[C@@H]1CN(C(=O)C2(N3CCCCC3)Cc3ccccc3C2)C[C@H](C)O1`, for which the cytotoxicity at 70.5 h was -9%.
Next, `O=C1[C@@H]2CN(Cc3cc4ccccc4o3)C[C@]2(C(=O)O)CN1CC1CC1`: -4.85%; `Cc1nnc2sc(-c3cc(C(C)C)n[nH]3)nn12`: -4.97%; `O=C(O)c1ccc(CC2CCN(S(=O)(=O)N3CCOCC3)C2)cc1` (stereo unspecified): -5.44%.
Next, `Cc1ccc(NC(=O)c2coc(C)n2)c(C)c1`: -6.55%; `c1ccc2sc(N3CCC4(CCCN4Cc4ncc[nH]4)CC3)nc2c1`: -7.49%.
`CCNc1cc(N2CCN(C(=O)c3ccc(OC)cc3)CC2)nc(C)n1`: the cytotoxicity at 70.5 h is -2.56%.
For `CNc1ccnc(NCCC(=O)Nc2ccccc2C)n1`, the cytotoxicity at 70.5 h is -4.65%.
Next, `Cc1ncc(CN2CCC(CNS(=O)(=O)C3CC3)C2)cn1` (stereo unspecified): 13.4%; `O=C1COc2ccc(C(=O)NS(=O)(=O)c3ccccc3Cl)cc2N1`: -14.9%; `O=C1COc2ccc(C(=O)NS(=O)(=O)c3ccccc3F)cc2N1`: -8.64%.
With `CCN(CC1CCOC1)C(=O)c1ccccc1S(=O)(=O)CC` (stereo unspecified), the cytotoxicity at 70.5 h stood at 10.2%.
Turning to `Cc1nn(C)c(C)c1CCC(=O)N1CCCC(n2cccn2)C1` (stereo unspecified), the cytotoxicity at 70.5 h was 21.7%.
`Cn1ccnc1CN1CCCN(C(=O)c2ccc3[nH]cnc3c2)CC1`: the cytotoxicity at 70.5 h is -8.02%.
Next, `NC(=O)C1CCN(C(=O)NCc2ccc(-c3ccn[nH]3)cc2)CC1`: -6.11%.
Regarding `CC(=O)c1ccc(N2CCN(C(=O)NCc3cc[nH]n3)CC2)cc1`, the cytotoxicity at 70.5 h was -2.83%.
In the case of `CC(C)(C)c1ncc(C(=O)NCCNC(=O)Cc2ccccc2)s1` it was -5.68%; in that of `CC(C)(C)c1ncc(C(=O)NCCNC(=O)c2cccs2)s1`, 12.5%; in that of `COc1c(CNC2CCC(O)CC2)c(C(C)C)nn1C` (stereo unspecified), -5.04%.
Next, `COc1c(CNC2CCN(C(=O)C(C)C)CC2)c(C(C)C)nn1C`: 19.1%; `O=C(NCc1cc[nH]n1)N1CCN(c2ncccn2)CC1`: -8.57%; `Cc1ncc2c(n1)CN(CC(=O)Nc1cccnc1)CC2`: 17.5%.
`Cc1ccc(F)cc1NS(=O)(=O)c1cc2c(c(C(=O)O)c1)OCCO2`: the cytotoxicity at 70.5 h is -5.92%.
In the case of `Cc1ccc(C)c(NS(=O)(=O)c2cc3c(c(C(=O)O)c2)OCCO3)c1` it was -8.38%; in that of `O=C(O)c1cc(S(=O)(=O)Nc2cccc(F)c2F)cc2c1OCCO2`, -0.966%.
On to `Cc1cc(C(=O)N2CCCN(Cc3nccn3C)CC2)no1`, for which the cytotoxicity at 70.5 h was determined as 12.6%.
Next, `Cc1noc(C)c1CCC(=O)N1CCCC(n2cccn2)C1` (stereo unspecified): -0.943%.
In the case of `CNC(=O)c1ccc(C(=O)N2CCCC(n3ccnc3C)C2)cn1` (stereo unspecified) it was -3.51%; in that of `CC(C)CN1CC(C(=O)NCCOc2ccc3c(c2)OCO3)CC1=O` (stereo unspecified), 3.51%.
In the case of `O=S1(=O)CCC(N(Cc2nc3ccccc3o2)Cc2cccs2)C1` (stereo unspecified) it was 19.2%; in that of `CSc1nccn1-c1cccc(C(=O)NCCC(=O)NC(C)C)c1`, -3.09%; in that of `Cc1noc(C)c1CN(Cc1cccs1)C1CCS(=O)(=O)C1` (stereo unspecified), 15.7%.
Regarding `O=C(CCCOc1ccc(F)cc1F)N1CCCC(n2cccn2)C1` (stereo unspecified), the cytotoxicity at 70.5 h is -3.24%.
In the case of `Cc1cnn(CC2CN(c3ccc(C#N)cn3)CCO2)c1` (stereo unspecified) it was 23.6%; in that of `NC(=O)NCC1CCCCN1C(=O)c1cccc(Cl)c1` (stereo unspecified), -4.19%; in that of `O=C(CCCc1ccccc1)N1CCC(Nc2cccnn2)CC1`, -4.29%.
Next, `Cc1ccc(CCC(=O)N2CCC(Nc3cccnn3)CC2)cc1`: 1.83%; `Cc1nccn1C1CCCN(C(=O)c2ccc3cc[nH]c3c2)C1` (stereo unspecified): -1.7%.
Next, `CCn1cc(NC(=O)C2CCN(CC(=O)NC(C)(C)CC)CC2)cn1`: -2.19%; `Cc1nccn1C1CCCN(C(=O)c2ccc3c(c2)OCCCO3)C1` (stereo unspecified): -0.919%; `Cc1ccc(NC2CCN(C(=O)Cc3cccs3)CC2)nn1`: 2.71%.
In the case of `CN(CC(=O)NC1CCOCC1)C1CCCN(c2cccnn2)C1` (stereo unspecified), the cytotoxicity at 70.5 h was -2.74%.
For `Cc1cc(C)n(C2CCCN(C(=O)c3ccc(N(C)C)nc3)C2)n1` (stereo unspecified), the cytotoxicity at 70.5 h was -2.57%.
For the molecule `Cc1noc(Cl)c1CCC(=O)N1CCC(Nc2cccnn2)CC1`, the cytotoxicity at 70.5 h is -0.162%.
Next, `CCCc1n[nH]c(C2CN(C(=O)c3cccc4[nH]ncc34)CCO2)n1` (stereo unspecified): -3.81%.
Take `O=C(c1csc(-c2nnc[nH]2)n1)N1CCCCC1Cn1cccn1` (stereo unspecified): the cytotoxicity at 70.5 h worked out at 1.45%.
Next, `O=S1(=O)CCC(N(Cc2nc(-c3ccccn3)no2)Cc2cccs2)C1` (stereo unspecified): -4.77%; `O=C(c1cc(-c2cccs2)on1)N1CCCCC1Cn1cccn1` (stereo unspecified): -8.41%.
`Cc1ccc(NC2CCN(C(=O)CCCc3cccs3)CC2)nn1`: the cytotoxicity at 70.5 h was -2.88%.
`Cc1oc(-c2cccs2)nc1C(=O)N1CCCC1Cn1cccn1` (stereo unspecified): the cytotoxicity at 70.5 h was -6.8%.
With `CCCc1n[nH]c(C2CN(C(=O)c3cncnc3C)CCO2)n1` (stereo unspecified), the cytotoxicity at 70.5 h was found to be 3.13%.
Regarding `CCc1nc2n(n1)CC(NCc1nc(Cc3ccccc3)no1)CC2` (stereo unspecified), the cytotoxicity at 70.5 h turned out to be 25.4%.
Next, `Cc1noc(CN(Cc2cccs2)C2CCS(=O)(=O)C2)n1` (stereo unspecified): -3.18%; `O=C(CCOc1cccc(F)c1)N1CCCC1Cn1cccn1` (stereo unspecified): -0.422%.
Regarding `O=C(CCCOc1ccccc1)N1CCCC1Cn1cccn1` (stereo unspecified), the cytotoxicity at 70.5 h is -3.8%.
`Cc1cn2c(n1)CCC(NC(=O)CCCn1cncn1)C2` (stereo unspecified): the cytotoxicity at 70.5 h turned out to be 15.9%.
In the case of `CCc1cnc(CN(C(C)=O)C2CCN(CCc3ccccc3)C2)o1` (stereo unspecified) it was 18.3%.
In the case of `CCc1nnc2n1CCN(C(=O)CN(C)C1CC1)C2` it was -0.0438%; in that of `CNS(=O)(=O)c1ccc(C(=O)N2CCCCC2c2ccc(C)cc2)o1` (stereo unspecified), -2.53%.
Turning to `COCCN1CCC(CNC(=O)C2(c3ccccc3)CCC2)C1` (stereo unspecified), the cytotoxicity at 70.5 h was -3.28%.
Regarding `COCCN1CCC(CNC(=O)C2(c3ccc(Br)cc3)CCCC2)C1` (stereo unspecified), the cytotoxicity at 70.5 h is -0.291%.
Next, `Cc1ccc(C2=CCN(C(=O)C3CCN(C)C(=O)C3)CC2)cc1` (stereo unspecified): -6.32%; `COc1ccc(C2=CCN(C(=O)C3CCCN(C(C)=O)C3)CC2)cc1` (stereo unspecified): -1.69%; `CCc1cnc(CN(C(C)=O)C2CCN(CCN3CCCCC3)C2)o1` (stereo unspecified): -3.61%.
Consider `Cc1ccccc1C1CCCN1Cc1ccc(S(=O)(=O)N(C)C)o1` (stereo unspecified), for which the cytotoxicity at 70.5 h is -2.87%.
In the case of `CN(C)C(=O)CCCS(=O)(=O)Cc1cc(Cl)c2c(c1)OCO2` it was -2.84%; in that of `CC(C)c1nn(C)c(N(C)C)c1CNCCC(=O)NC1CCCCC1`, 37.6%; in that of `Cc1nn(C)c(N(C)C)c1CNCCC(=O)NC1CCCC1`, 3.14%.
`Cc1nn(C)c(N(C)C)c1CNCCC(=O)NC1CCCCC1`: the cytotoxicity at 70.5 h is -0.221%.
`CNS(=O)(=O)c1ccc(C(=O)N2CCCC2c2ccccc2C)o1` (stereo unspecified): the cytotoxicity at 70.5 h is -1.59%.
In the case of `COc1c(CNCCC(=O)NC2CCCCC2)c(C(C)C)nn1C` it was -0.685%.

The values are drawn from ChEMBL document CHEMBL3507680, “University of Dundee, Gates Library screen for HepG2 cell viability”.
